Reference: patent US7820400B2, “Tumor-associated marker” (The Trustees of Columbia University in the City of New York, priority 2000, dated 2010)

System: SK-BR-3 cells
Experiment: Release of TIP-2 antigen into culture media of Taxol-treated cells (Western blot)
Type: cell-based, human
Conditions: SK-BR-3 cells treated with increasing amounts of Taxol (5.5-88 uM)
Procedure: The release of TIP-2 antigen into cell culture media of SK-BR-3 cells treated with different concentration of Taxol. The lines are as follows (from left to right): 1) SK-BR-3 cell lysate prepared form approximately 70,000 cells; 2) empty lane; 3) Taxol, 88 uM added to 35 mm tissue plate containing approximately 250,000 cells; 4) same with Taxol, 44 uM; 5) same with Taxol, 22 uM; 7) same with Taxol, 11 uM; 8) same with Taxol, 5.5 uM; 9) cell lysate prepared from cells which were not treated with Taxol; 10) lysate prepared from the residual dead cells' remnants after treatment with Taxol, 88 uM.
Using a specific fusion partner cell line MFP-2 were developed two fully human antibodies to breast and prostate cancer-associated antigens. Both antigens were reactive with a 42 kDa-protein target, which was identified through SEREX technology as Ga-interacting protein, C terminus or Tax interacting protein, clone 2. This protein is specifically overexpressed in three human breast cancer cell lines, SK-BR-3, MCF-7 and ZR-1-75, has very low if any expression level in human prostate cancer lines, PC-3, LNCaP and DU-145 and no expression in two human fibroblast cell lines. […] Normal breast epithelia were negative for staining with anti-TIP-2 antibodies as was benign prostate hyperplasia (BPH) tissue. […]

**Q.** Which “release of TIP-2 antigen into the media” value does the source give for `CC(=O)O[C@H]1C(=O)[C@@]2(C)[C@H]([C@H](OC(=O)c3ccccc3)[C@]3(O)C[C@H](OC(=O)[C@H](O)[C@@H](NC(=O)c4ccccc4)c4ccccc4)C(C)=C1C3(C)C)[C@]1(OC(C)=O)CO[C@@H]1C[C@@H]2O` [Taxol] here?
**A.** Its value is “TIP-2 antigen released into the media in a dose dependent manner”.
